# Data as given in patent US8080523B2 (The Regents of the University of California, priority 2004, dated 2011).
# Positions of bridges follow the written chain, without caps; N, C: chain ends. Residues, ends and D or L forms follow the SMILES beside them.
# Key:
# Assay type in all cases: cell-based
# Kv1.1 = molecular target: T1, Kv1.1 (Mus musculus, UniProt P16388); assay: Patch-clamp block of Kv1.1 channels stably expressed in L929 cells
# T1 construct: expressed in transfected cells
# Experimental: (§1) Kds were determined from the dose-response curves shown using Microcal Origin software.
# Kv1.2 [1] = assay: Ion channel specificity panel: Kv1.2
# Text: (§2) Margatoxin, a peptide from scorpion venom that has been touted as a specific Kv1.3 inhibitor (Koo et al., 1997; Lin et al., 1993; Middleton et al., 2003) was also not specific.
# Kv1.5 = Kv1.5 (Homo sapiens, UniProt P22460); assay: Ion channel specificity panel: Kv1.5
# Chain of Kv1.5 (P22460 whole entry): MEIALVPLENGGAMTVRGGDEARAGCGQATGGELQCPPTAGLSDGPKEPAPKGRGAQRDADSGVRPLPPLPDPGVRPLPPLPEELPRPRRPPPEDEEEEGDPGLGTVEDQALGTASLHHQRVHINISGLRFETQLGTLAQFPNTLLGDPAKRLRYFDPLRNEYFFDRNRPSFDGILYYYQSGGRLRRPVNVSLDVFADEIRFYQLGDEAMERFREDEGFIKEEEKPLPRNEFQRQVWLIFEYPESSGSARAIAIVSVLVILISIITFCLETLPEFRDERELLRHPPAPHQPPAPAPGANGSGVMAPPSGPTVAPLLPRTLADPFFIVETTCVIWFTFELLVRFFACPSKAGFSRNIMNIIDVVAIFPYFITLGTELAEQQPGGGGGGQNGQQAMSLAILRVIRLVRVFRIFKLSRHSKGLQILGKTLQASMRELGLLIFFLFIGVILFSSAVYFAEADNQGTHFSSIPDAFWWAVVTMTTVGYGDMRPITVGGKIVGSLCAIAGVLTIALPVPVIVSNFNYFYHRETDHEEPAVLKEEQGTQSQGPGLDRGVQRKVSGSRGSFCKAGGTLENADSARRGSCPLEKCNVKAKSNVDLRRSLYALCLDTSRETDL
# Text: as §2
# Kv1.3 = molecular target: T2, Kv1.3 (Mus musculus, UniProt P16390); assay: Patch-clamp block of Kv1.3 channels stably expressed in L929 cells; conditions: cloned channel, dose-response curves
# T2 construct: expressed in transfected cells
# T2 sequence (P16390 whole entry): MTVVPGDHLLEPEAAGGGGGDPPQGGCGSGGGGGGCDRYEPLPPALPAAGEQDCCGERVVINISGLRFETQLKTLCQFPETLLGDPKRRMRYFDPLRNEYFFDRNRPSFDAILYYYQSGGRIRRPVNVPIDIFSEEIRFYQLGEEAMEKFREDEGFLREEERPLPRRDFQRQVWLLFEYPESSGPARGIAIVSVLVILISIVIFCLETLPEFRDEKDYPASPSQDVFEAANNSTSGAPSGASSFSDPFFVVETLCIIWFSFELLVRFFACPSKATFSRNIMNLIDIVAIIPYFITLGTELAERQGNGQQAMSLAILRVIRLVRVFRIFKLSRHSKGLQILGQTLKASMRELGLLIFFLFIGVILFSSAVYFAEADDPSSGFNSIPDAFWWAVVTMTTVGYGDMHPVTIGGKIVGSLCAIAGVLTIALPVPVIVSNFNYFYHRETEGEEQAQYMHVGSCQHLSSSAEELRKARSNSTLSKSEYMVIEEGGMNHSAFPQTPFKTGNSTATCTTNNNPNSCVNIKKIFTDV
# Experimental: as §1
# Kv1.2 [2] = molecular target: Kv1.2 (UniProt P63142); assay: Ion channel specificity panel: Kv1.2; conditions: read-out: Kd on Kv1.2
# Text: as §2
# Kv1.6 = Kv1.6 (Homo sapiens, UniProt P17658); assay: Ion channel specificity panel: Kv1.6
# Chain of Kv1.6 (P17658 whole entry): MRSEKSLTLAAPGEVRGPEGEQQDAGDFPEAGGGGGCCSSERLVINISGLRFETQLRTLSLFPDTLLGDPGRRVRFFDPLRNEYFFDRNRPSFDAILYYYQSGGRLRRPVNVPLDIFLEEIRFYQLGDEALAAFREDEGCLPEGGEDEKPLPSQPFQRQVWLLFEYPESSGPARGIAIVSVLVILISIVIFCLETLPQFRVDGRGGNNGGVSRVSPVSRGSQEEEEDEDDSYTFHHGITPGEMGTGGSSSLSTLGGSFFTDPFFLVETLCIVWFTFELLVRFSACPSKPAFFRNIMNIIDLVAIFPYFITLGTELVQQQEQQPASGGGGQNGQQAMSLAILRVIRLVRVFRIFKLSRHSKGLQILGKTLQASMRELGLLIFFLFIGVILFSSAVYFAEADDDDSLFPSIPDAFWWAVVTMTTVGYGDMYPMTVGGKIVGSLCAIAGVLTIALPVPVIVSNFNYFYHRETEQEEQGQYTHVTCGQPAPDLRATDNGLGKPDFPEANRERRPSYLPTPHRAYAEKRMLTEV
# Text: as §2
# Kv3.2 = assay: Ion channel specificity panel: Kv3.2
# Text: as §2
# T1 sequence (P16388 whole entry): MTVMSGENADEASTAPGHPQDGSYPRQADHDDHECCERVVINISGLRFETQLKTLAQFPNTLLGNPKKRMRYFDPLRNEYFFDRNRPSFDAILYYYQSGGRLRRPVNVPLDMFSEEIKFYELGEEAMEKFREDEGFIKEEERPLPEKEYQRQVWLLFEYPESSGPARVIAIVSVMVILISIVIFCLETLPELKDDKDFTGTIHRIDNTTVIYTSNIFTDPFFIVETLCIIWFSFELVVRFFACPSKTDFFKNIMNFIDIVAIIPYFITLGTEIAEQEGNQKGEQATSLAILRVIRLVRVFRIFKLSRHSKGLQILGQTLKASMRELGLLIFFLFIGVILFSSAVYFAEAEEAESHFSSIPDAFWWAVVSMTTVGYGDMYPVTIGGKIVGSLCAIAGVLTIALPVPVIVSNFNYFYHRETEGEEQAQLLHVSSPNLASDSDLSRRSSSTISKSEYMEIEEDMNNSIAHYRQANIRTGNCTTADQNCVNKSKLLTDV
Compound,selectivity for Kv1.3 over Kv1.1 (Kv1.1),selectivity for Kv1.3 over Kv1.2 (Kv1.2 [1]),selectivity for Kv1.3 over Kv1.5 (Kv1.5),Kd (Kv1.3) [nM],Kd (Kv1.1) [nM],Kd (Kv1.2 [2]) [nM],Kd (Kv1.6) [nM],selectivity for Kv1.3 over Kv1.6 (Kv1.6) [fold],Kd (Kv3.2) [nM],selectivity for Kv1.3 over Kv3.2 (Kv3.2) [fold]
O=c1cc(-c2ccc(O)c(O)c2)oc2cc(O)cc(O)c12 [Luteolin],no selectivity,no selectivity,no selectivity,,,,,,,
"CC[C@H](C)[C@H](NC(=O)[C@@H](N)[C@@H](C)O)C(=O)N[C@H](C(=O)N[C@@H](CC(N)=O)C(=O)N[C@H](C(=O)N[C@@H](CCCCN)C(=O)N[C@H]1CSSC[C@@H]2NC(=O)[C@H](CCCCN)NC(=O)[C@H](C)NC(=O)CNC(=O)[C@H](C)NC(=O)[C@H](CO)NC(=O)[C@H](CCC(N)=O)NC(=O)CNC(=O)[C@H](Cc3ccccc3)NC(=O)[C@H](CCC(N)=O)NC(=O)[C@H](C)NC(=O)[C@H](CCCCN)NC(=O)[C@@H]3CSSC[C@@H](C(=O)N[C@@H](Cc4ccc(O)cc4)C(=O)N4CCC[C@H]4C(=O)N[C@@H](Cc4c[nH]cn4)C(=O)O)NC(=O)[C@H](CCCCN)NC(=O)[C@H](CSSC[C@H](NC(=O)[C@H](CCC(N)=O)NC(=O)[C@H](CCCCN)NC(=O)[C@@H]4CCCN4C(=O)[C@H](CO)NC(=O)[C@H]([C@@H](C)O)NC1=O)C(=O)N[C@@H](CC(C)C)C(=O)N1CCC[C@H]1C(=O)N1CCC[C@H]1C(=O)N3)NC(=O)[C@H](CCCCN)NC(=O)CNC(=O)[C@H](CC(N)=O)NC(=O)[C@H](CCSC)NC2=O)C(C)C)[C@@H](C)CC [Margatoxin] (H-TIINVKCTSPKQCLPPCKAQFGQSAGAKCMNGKCKCYPH-OH; disulfide 7-29, 13-34, 17-36; N-terminus and C-terminus assumed)",9 fold,5 fold,,0.11 ± 0.012,10 ± 1,0.52 ± 0.001,> 100,> 1000,> 100,> 1000
